# Source: paper PMC8279409, “Novel Mixed NOP/Opioid Receptor Peptide Agonists” (Journal of Medicinal Chemistry, 2021)
# Read-outs that look alike come from different tables or passages of the source.
# Assays:
# [1] = biological target: T1, human mu receptor (Homo sapiens, UniProt P35372); assay: Dynamic mass redistribution (DMR), mu receptor; format: cell-based; details: for mu Emax ± S.E.M.: maximum picometer (pm) modification (peak), mean ± SEM of at least three experiments in duplicate
# T1 construct: expressed in transfected cells; host or cells: CHO cells stably coexpressing the receptor and chimeric Gαqi5
# T1 sequence (P35372 whole entry): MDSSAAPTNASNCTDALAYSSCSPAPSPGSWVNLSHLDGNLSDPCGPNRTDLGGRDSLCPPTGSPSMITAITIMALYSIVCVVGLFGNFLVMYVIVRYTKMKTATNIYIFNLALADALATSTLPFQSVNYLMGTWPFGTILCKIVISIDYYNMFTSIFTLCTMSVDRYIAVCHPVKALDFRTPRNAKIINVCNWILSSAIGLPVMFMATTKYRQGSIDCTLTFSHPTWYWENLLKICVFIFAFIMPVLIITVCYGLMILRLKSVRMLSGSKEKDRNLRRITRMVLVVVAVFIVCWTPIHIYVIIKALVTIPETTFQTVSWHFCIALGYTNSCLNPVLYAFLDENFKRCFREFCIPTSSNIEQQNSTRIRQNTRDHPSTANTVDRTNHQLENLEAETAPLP
# Protocol: (§1) CHO cells stably expressing the human NOP and mu receptors were kindly provided by D.G. Lambert (University of Leicester, UK). Cells were cultured in DMEM/F-12 medium supplemented with 10% FBS, 100 U/mL penicillin, 100 μg/mL streptomycin, and 2 mmol/L L-glutamine. The medium was supplemented with 400 μg/mL G418 to maintain expression. Cells were cultured at 37 °C in 5% CO2 humidified air. For DMR measurements, the label-free EnSight Multimode Plate Reader (Perkin Elmer, MA, US) was used. Cells were seeded 15,000 cells/well in a volume of 30 μL onto fibronectin-coated 384-well DMR microplates and cultured for 20 h to obtain confluent monolayers. Cells were starved in the assay buffer (HBSS with 20 mM HEPES, 0.01% BSA fraction V) for 90 min before the test. Serial dilutions were made in the assay buffer. After reading the baseline, compounds were added in a volume of 10 μL; then, DMR changes were recorded for 60 min. Responses were described as picometer (pm) shifts over time (sec) following subtraction of values from vehicle-treated wells. Maximum picometer (pm) modification (peak) was used to generate concentration response curves. All the experiments were carried out at 37 °C.
# The pharmacological terminology adopted in this paper is consistent with IUPHAR recommendations.[59] All data are expressed as the mean ± standard error of the mean (SEM) of at least three experiments performed in duplicate. […] Concentration-response curves to agonists were fitted to the classical four-parameter logistic nonlinear regression model:
# Effect = Baseline + (Emax – Baseline)/(1 + 10^(LogEC50 – Log[compound]) × Hillslope). Curve fitting was performed using PRISM 6.0 (GraphPad Software Inc., San Diego).
# [2] = biological target: T2, human NOP receptor (Homo sapiens, UniProt P41146); assay: Calcium mobilization, NOP receptor; format: cell-based; details: for NOP pEC50 (CL95%): CHO cells coexpressing human NOP and Gαqi5, Fluo-4 AM, 37 °C, mean of at least three experiments in duplicate, CL95% in brackets; for NOP Emax ± S.E.M.: mean ± SEM of at least three experiments in duplicate
# T2 construct: expressed in transfected cells; host or cells: CHO cells stably coexpressing the receptor and chimeric Gαqi5
# T2 sequence (P41146 whole entry): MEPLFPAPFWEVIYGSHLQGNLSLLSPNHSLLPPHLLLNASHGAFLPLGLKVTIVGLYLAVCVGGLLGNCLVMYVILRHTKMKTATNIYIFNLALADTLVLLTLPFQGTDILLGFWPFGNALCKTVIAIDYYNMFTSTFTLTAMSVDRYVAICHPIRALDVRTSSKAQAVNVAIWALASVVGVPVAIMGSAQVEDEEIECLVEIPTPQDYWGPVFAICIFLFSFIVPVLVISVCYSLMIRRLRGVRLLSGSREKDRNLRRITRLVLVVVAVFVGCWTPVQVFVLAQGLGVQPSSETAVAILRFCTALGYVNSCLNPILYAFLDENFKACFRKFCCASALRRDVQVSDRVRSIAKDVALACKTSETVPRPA
# Outline: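 CHO cells stably co-expressing the receptor and chimeric Gαqi5 were loaded with 3 μM Fluo-4 AM with probenecid for 30 min at 37 °C. Fluorescence was read on compound addition at 37 °C as maximal change over baseline.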
# [3] = biological target: T1, human mu receptor; assay: Calcium mobilization, mu opioid receptor; format: cell-based; details: percent over the baseline fluorescence, mean ± SEM of at least three experiments in duplicate, SEM
# [4] = biological target: T2, human NOP receptor; assay: Dynamic mass redistribution (DMR), NOP receptor; format: cell-based
# Protocol: as §1, with “All the experiments were carried out at 37 °C.” left out
# The pharmacological terminology adopted in this paper is consistent with IUPHAR recommendations.[59] All data are expressed as the mean ± standard error of the mean (SEM) of at least three experiments performed in duplicate. […]
# [5] = tested on: NOP, mu, kappa, delta receptors; details: functional studies with human recombinant receptors; cited from earlier work
# From the text: Finally, the effects of [Dmt^1,5]N/OFQ(1-13)-NH2 at kappa and delta opioid receptors were investigated. […] Of note, the kappa potency of [Dmt^1,5]N/OFQ(1-13)-NH2 was similar to that shown at NOP and mu receptors. […] Moreover, similar results have b ...
compound,measurement,setting,value
"C[C@@H](NC(=O)[C@@H](N)Cc1ccc(O)cc1)C(=O)N[C@@H](Cc1ccccc1)C(=O)NCC(=O)N[C@@H](Cc1ccc(O)cc1)C(=O)N1CCC[C@H]1C(=O)N[C@@H](CO)C(N)=O [Compound 2, dermorphin, reference compound]",mu Emax ± S.E.M.,"[1]; DMR, SEM",151 ± 16
same,NOP pEC50 (CL95%),"[2]; Table 1 series, FlexStation II",inactive
same,NOP Emax ± S.E.M.,"[2]; Table 1 series, maximum change in fluorescence as percent over the baseline fluorescence",inactive
same,NOP pEC50 (CL95%),[2]; Table 2 series,inactive
same,NOP Emax ± S.E.M.,"[2]; Table 2 series, percent over the baseline fluorescence",inactive
same,NOP pEC50 (CL95%),[2]; Table 3 series,inactive
same,NOP Emax ± S.E.M.,"[2]; Table 3 series, percent over the baseline fluorescence",inactive
same,pEC50_NOP,"[2]; molecular formula strings CSV, repeats calcium mobilization values of Tables 1-3",inactive
same,Emax,"[3]; read-out: mu Emax ± S.E.M, Table 1 series",380 ± 15%
same,Emax,"[3]; read-out: mu Emax ± S.E.M., Table 2 series",306 ± 23%
same,Emax,"[3]; read-out: mu Emax ± S.E.M., Table 3 series",359 ± 18%
same,NOP pEC50 (CL95%),"[4]; CHO cells expressing human NOP, label-free EnSight reader, 60 min, 37 °C, mean of at least three experiments in duplicate, CL95% in brackets",inactive
same,NOP Emax ± S.E.M.,"[4]; maximum picometer (pm) modification (peak), mean ± SEM of at least three experiments in duplicate",inactive
"CC(C)C[C@H](NC(=O)[C@H](CCCCN)NC(=O)[C@H](CCCNC(=N)N)NC(=O)[C@H](C)NC(=O)[C@H](CO)NC(=O)[C@H](CCCCN)NC(=O)[C@H](CCCNC(=N)N)NC(=O)[C@H](C)NC(=O)CNC(=O)[C@@H](NC(=O)[C@H](Cc1ccccc1)NC(=O)CNC(=O)CNC(=O)[C@@H](N)Cc1ccccc1)[C@@H](C)O)C(=O)N[C@@H](C)C(=O)N[C@@H](CC(N)=O)C(=O)N[C@@H](CCC(N)=O)C(=O)O [Compound 36, N/OFQ]",mu pEC50 (CL95%),"[1]; DMR, CHO cells expressing human mu receptor, 60 min, 37 °C, mean of at least three experiments in duplicate, CL95% in brackets",inactive
same,mu Emax ± S.E.M.,[1]; DMR,inactive
same,pEC50_mu,"[1]; molecular formula strings CSV, value of Compound_36 repeats the DMR result of Table 4",inactive
[Dmt^1]N/OFQ(1-13)-NH2,rank order of potency,[5],NOP = mu > kappa > delta
